Drawing on patent US9409888B2, “Dimeric compounds” (priority 2012, dated 2016), this text covers IC50 for 4 compounds.

One experiment concerns the target BIR2 domain of XIAP (Homo sapiens (Human), UniProt P98170, C202A/C213G). Nature of the experiment: TR-FRET assay for BIR2: inhibition of binding of XIAP BIR2 domain to Peptide A (SMAC-derived peptide). The conditions noted are these: 6× His-tagged BIR2 domain (aa 124-240 of XIAP) 10 nM, Peptide A 20 nM. The method, then:
TR-FRET Assay for BIR2 and BIR3
The peptides were labeled with the fluorescent tags FITC or TAMRA and Kd values were determined by fluorescence polarization assay. […] The peptide sequence was derivatized with biotin to provide […]-(ε-biotin)-OH 1:2 TFA as the substrate for the TR-FRET assay.
The XIAP protein sequence was obtained from the SWISS-PROT protein sequence database and the BIR2 and BIR3 domains were derived from that. The sequence of the BIR2 domain used for the TR-FRET assay is […].
Time-resolved fluorescence resonance energy transfer (TR-FRET) signals were measured 1 hour later at room temperature. Test compound potency was assessed at 10 serially diluted concentrations. Percentage of inhibition at each concentration was determined to generate an IC50 value for each test compound.
For orientation: In TR-FRET formats the signal depends on donor and acceptor labels being close together.

For a further experiment, the target named is BIR3 domain of XIAP (Homo sapiens (Human), UniProt P98170). Description: TR-FRET assay for BIR3: inhibition of binding of XIAP BIR3 domain to Peptide A (SMAC-derived peptide). As to conditions: 6× His-tagged BIR3 domain (aa 241-356 of XIAP) 10 nM, Peptide A 20 nM.
Chain of BIR3 domain of XIAP (P98170 other isoform, or with tags, fused parts or gaps): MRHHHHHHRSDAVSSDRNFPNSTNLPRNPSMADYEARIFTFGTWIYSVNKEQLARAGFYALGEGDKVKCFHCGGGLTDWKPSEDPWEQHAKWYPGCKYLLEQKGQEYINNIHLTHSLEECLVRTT

Chain of BIR2 domain of XIAP (P98170 other isoform, or with tags, fused parts or gaps, stated change not applied): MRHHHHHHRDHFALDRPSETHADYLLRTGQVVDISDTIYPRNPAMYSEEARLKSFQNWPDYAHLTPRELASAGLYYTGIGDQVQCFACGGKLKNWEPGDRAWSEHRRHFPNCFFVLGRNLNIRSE

Broadly, the IC50 is the concentration that inhibits the measured activity by half. As to `CN[C@@H](C)C(=O)N[C@H]1CN(C(=O)c2cncc(C(=O)N3C[C@H](NC(=O)[C@H](C)NC)C(=O)N(Cc4c(OC)ccc5cc(Br)ccc45)c4ccccc43)c2)c2ccccc2N(Cc2c(OC)ccc3cc(Br)ccc23)C1=O` [Ex 8, (2S)-N-[(3S)-5-[(6-Bromo-2-methoxy-1-naphthyl)methyl]-1-[5-[(3S)-5-[(6-bromo-2-methoxy-1-naphthyl)methyl]-3-[[(2S)-2-(methylamino)propanoyl]amino]-4-oxo-2,3-dihydro-1,5-benzodiazepine-1-carbonyl]pyridine-3-carbonyl]-4-oxo-2,3-dihydro-1,5-benzodiazepin-3-yl]-2-(methylamino)propanamide], the IC50 was 1.32 nM at BIR2 domain of XIAP and above 5480 nM on BIR3 domain of XIAP.
The like results for `CN[C@@H](C)C(=O)N[C@H]1CN(C(=O)c2ccc(C(=O)N3C[C@H](NC(=O)[C@H](C)NC)C(=O)N(Cc4c(OC)ccc5cc(Br)ccc45)c4ccccc43)c(C)c2)c2ccccc2N(Cc2c(OC)ccc3cc(Br)ccc23)C1=O` [Ex 10, (2S)-N-[(3S)-5-[(6-Bromo-2-methoxy-1-naphthyl)methyl]-1-[4-[(3S)-5-[(6-bromo-2-methoxy-1-naphthyl)methyl]-3-[[(2S)-2-(methylamino)propanoyl]amino]-4-oxo-2,3-dihydro-1,5-benzodiazepine-1-carbonyl]-3-methyl-benzoyl]-4-oxo-2,3-dihydro-1,5-benzodiazepin-3-yl]-2-(methylamino)propanamide] were, in that order, 1.38 nM and above 5480 nM.
The like results for `CN[C@@H](C)C(=O)N[C@H]1CN(C(=O)c2cc(C)c(C(=O)N3C[C@H](NC(=O)[C@H](C)N)C(=O)N(Cc4c(OC)ccc5cc(Br)ccc45)c4ccccc43)cc2C)c2ccccc2N(Cc2c(OC)ccc3cc(Br)ccc23)C1=O` [Ex 13, (2S)-2-Amino-N-[(3S)-5-[(6-bromo-2-methoxy-1-naphthyl)methyl]-1-[4-[(3S)-5-[(6-bromo-2-methoxy-1-naphthyl)methyl]-3-[[(2S)-2-(methylamino)propanoyl]amino]-4-oxo-2,3-dihydro-1,5-benzodiazepine-1-carbonyl]-2,5-dimethyl-benzoyl]-4-oxo-2,3-dihydro-1,5-benzodiazepin-3-yl]propanamide] were, in that order, 0.801 nM and above 5480 nM.
For `CN[C@@H](C)C(=O)N[C@H]1CN(C(=O)CCCCCCC(=O)N2C[C@H](NC(=O)[C@H](C)NC)C(=O)N(Cc3c(OC)ccc4cc(Br)ccc34)c3ccccc32)c2ccccc2N(Cc2c(OC)ccc3cc(Br)ccc23)C1=O` [Ex 18, (2S)-N-[(3S)-5-[(6-Bromo-2-methoxy-1-naphthyl)methyl]-1-[8-[(3S)-5-[(6-bromo-2-methoxy-1-naphthyl)methyl]-3-[[(2S)-2-(methylamino)propanoyl]amino]-4-oxo-2,3-dihydro-1,5-benzodiazepin-1-yl]-8-oxo-octanoyl]-4-oxo-2,3-dihydro-1,5-benzodiazepin-3-yl]-2-(methylamino)propanamide], the results for the IC50 at BIR2 domain of XIAP and on BIR3 domain of XIAP were 0.871 nM and above 5480 nM, respectively.
